# Measurements as given in patent publication US6653529B2, “Use of the maize X112 mutant ahas 2 gene and imidazolinone herbicides for selection of transgenic monocots, maize, rice and wheat plants resistant to the imidazolinone herbicides” (BASF Aktiengesellschaft, priority 2000, dated 2003).
# “And” between values parts separate entries of the source, which are not always exact repeats. Identical values can stand only once.
# Assays:
# Assay type in all cases: in vivo
# [1] = tested on: 3395IR (homozygous XA17 imi-resistant corn line); test: Greenhouse spray test of corn lines with imidazolinone herbicides, injury score; conditions: for Score, individual plants (0 dead plants, 5 healthy plants with no injury): 16 days after treatment; for M.S.: score 0 (dead) to 5 (healthy), 16 days
# Text: (§1) Grow one corn plant per pot (5×5 inch) in a 3×5 flat till three- to four-leaf stage (about 9 to 13 days depending on the weather). On the day of spraying, water the plants well and let excess water drip out. Spray plants on a belt-sprayer with the imidazolinone herbicides at desired rates. […] When temperature was too high, base water plants to prevent wilting. Closely observe the plants for the next two to three weeks. Symptoms of herbicide injury will be visible three days after spraying and susceptible plants will die within two to three weeks depending on temperature.
# (§2) The plants were rated on a scale of 0-5 with 0 for dead plants and 5 for healthy plants with no or minimum injury.
# (§3) Two transgenic hybrids BAa-4 and MAa-7 lines (see FIG. 5 for their pedigree), a non-transformed control line B×A (B73×A188), 8962IT (heterozygous XI12 imi-tolerant corn line), 8962 (wild type control) and 3395IR (homozygous XA17 imi-resistant corn line) (8962IT and 8962 were from ICI, now Garst Seed Company, Slater, Iowa 50244, and 3395IR was from Pioneer Hi-Bred International Inc, Iowa 50306-3453). Plants were sprayed with 4, 8, 16 or 20×PURSUIT® imazethapyr, ARSENAL® imazapyr, CADRE® imazameth or RAPTOR® imazamox. Plants were scored 0 to 5 (with 0 being dead plants, 5 being healthy plants with no injury) individually 16 days after herbicide treatments. […] For the four tested imidazolinones, transgenic plants could tolerate higher rates of ARSENAL® imazapyr, PURSUIT® imazethapyr, than CADRE® imazameth and RAPTOR® imazamox.
# [2] = tested on: transgenic corn hybrid MAa-7; test: as above; conditions: MAa-7; for Score, individual plants (0 dead plants, 5 healthy plants with no injury): 16 days after treatment; for M.S.: score 0 (dead) to 5 (healthy), 16 days
# Text: as §1, §2, §3
# [3] = tested on: non-transformed control corn line BxA (B73×A188); test: as above; conditions: for Score, individual plants (0 dead plants, 5 healthy plants with no injury): 16 days after treatment; for M.S.: score 0 (dead) to 5 (healthy), 16 days
# Text: as §1, §2, §3
# [4] = tested on: transgenic corn hybrid BAa-4; test: as above; conditions: BAa-4; for Score, individual plants (0 dead plants, 5 healthy plants with no injury): 16 days after treatment; for M.S.: score 0 (dead) to 5 (healthy), 16 days
# Text: as §1, §2, §3
# [5] = tested on: 8692 (wild type control corn line); test: as above; conditions: for Score, individual plants (0 dead plants, 5 healthy plants with no injury): 16 days after treatment; for M.S.: score 0 (dead) to 5 (healthy), 16 days
# transgenic rice Line 26 = test: Response of rice plants to various herbicides, seed set in greenhouse; conditions: post-emergence, 1× g ai/ha: PURSUIT 62.5, CADRE 32, ARSENAL 24, RAPTOR 32, SCEPTER 125, ACCENT 35, CLASSIC 5, AC322,140 20, LONDAX 68
# Text: (§4) A total of 9 herbicides, 5 imidazolinones, two rice herbicides and ACCENT® (nicosulfuron) and CLASSIC® (clorimuron-ethyl) were applied in this study. Materials and methods were basically the same as described above, except that instead of 6″ pots, flats with 18 (3″×3″ per cell) cells were used, and 10-12 seeds were planted to one 3″×3″ cell. Ten plants were maintained in one cell in the post-emergence application. Each herbicide was sprayed at 4 different rates, 1, 2, 4, and 6×, as either pre or post-emergence applications with three replications per treatment. The name and amount of herbicide applied in this experiment and information relevant to their commercial applications are listed in Table 3. For simplicity and convenience, the lowest concentration used is referred as 1× rate, 2, 4 and 6× rates can be calculated as multiples of 1×.
# (§5) To monitor plant response to various herbicides, data on fresh weight was collected. For pre-emergence applications, all plants from one cell were harvested 32 days after spraying (36-day old plants) and weighed. Twenty-nine days after herbicide application, 5 plants (44-day old plants) from each cell in the post-emergence application, were cut and weighed individually. Mean fresh weight for each treatment was calculated over three replications. The remaining 5 plants were grown in the greenhouse to maturity at which time, panicles of 3 plants were collected, and number of filled seeds and number of total kernels were counted to determine percentage of seed set.
# [6] = tested on: untransformed Nt rice plants; test: as above; conditions: post-emergence, 1× g ai/ha: PURSUIT 62.5, CADRE 32, ARSENAL 24, RAPTOR 32, SCEPTER 125, ACCENT 35, CLASSIC 5, AC322,140 20, LONDAX 68
# Text: as §4, §5
# transgenic rice Line 29 = test: as above; conditions: post-emergence, 1× g ai/ha: PURSUIT 62.5, CADRE 32, ARSENAL 24, RAPTOR 32, SCEPTER 125, ACCENT 35, CLASSIC 5, AC322,140 20, LONDAX 68
# Text: as §4, §5
# [7] = tested on: 8692IT (heterozygous XI12 imi-tolerant corn line); test: Greenhouse spray test of corn lines with imidazolinone herbicides, injury score; conditions: for Score, individual plants (0 dead plants, 5 healthy plants with no injury): 16 days after treatment; for M.S.: score 0 (dead) to 5 (healthy), 16 days
# [8] = 4×: PURSUIT 250, RAPTOR 160, ARSENAL 96, CADRE 400 g/ha
# [9] = 8×: PURSUIT 500, RAPTOR 320, ARSENAL 192, CADRE 800 g/ha
# [10] = 16×: RAPTOR 640 g/ha, ARSENAL 384 g/ha, CADRE 1.6 kg/ha
structure (smiles),measurement,setting,value
"CC(C)C1(C)N=C(c2ncccc2C(=O)O)NC1=O (stereo not drawn) [ARSENAL ®, imazapyr]","Score, individual plants (0 dead plants, 5 healthy plants with no injury)",[1]; [8],5
same,M.S.,[1]; [8],5
same,"Score, individual plants (0 dead plants, 5 healthy plants with no injury)",[1]; [9],5
same,M.S.,[1]; [9],5
same,"Score, individual plants (0 dead plants, 5 healthy plants with no injury)",[1]; [10],4 and 5 (4×)
same,M.S.,[1]; [10],4.8
same,"Score, individual plants (0 dead plants, 5 healthy plants with no injury)",[2]; [8],5
same,M.S.,[2]; [8],5
same,"Score, individual plants (0 dead plants, 5 healthy plants with no injury)",[2]; [9],5
same,M.S.,[2]; [9],5
same,"Score, individual plants (0 dead plants, 5 healthy plants with no injury)",[2]; [10],5 (4×) and 4
same,M.S.,[2]; [10],4.8
same,"Score, individual plants (0 dead plants, 5 healthy plants with no injury)",[3]; [8],0
same,M.S.,[3]; [8],0
same,"Score, individual plants (0 dead plants, 5 healthy plants with no injury)",[3]; [9],0
same,M.S.,[3]; [9],0
same,"Score, individual plants (0 dead plants, 5 healthy plants with no injury)",[3]; [10],0
same,M.S.,[3]; [10],0
same,"Score, individual plants (0 dead plants, 5 healthy plants with no injury)",[4]; [8],5
same,M.S.,[4]; [8],5
same,"Score, individual plants (0 dead plants, 5 healthy plants with no injury)",[4]; [9],5
same,M.S.,[4]; [9],5
same,"Score, individual plants (0 dead plants, 5 healthy plants with no injury)",[4]; [10],5 (2×) and 4 (3×)
same,M.S.,[4]; [10],4.4
same,"Score, individual plants (0 dead plants, 5 healthy plants with no injury)",[5]; [8],0
same,M.S.,[5]; [8],0
same,"Score, individual plants (0 dead plants, 5 healthy plants with no injury)",[5]; [9],0
same,M.S.,[5]; [9],0
same,"Score, individual plants (0 dead plants, 5 healthy plants with no injury)",[5]; [10],0
same,M.S.,[5]; [10],0
same,% seed-set,transgenic rice Line 26; 1× rate,85%
same,No. filled seeds/3 panicles,transgenic rice Line 26; 1× rate,156
same,Total No. of kernels/3 panicles,transgenic rice Line 26; 1× rate,183
same,% seed-set,transgenic rice Line 26; 2× rate,77%
same,No. filled seeds/3 panicles,transgenic rice Line 26; 2× rate,132
same,Total No. of kernels/3 panicles,transgenic rice Line 26; 2× rate,170
same,% seed-set,transgenic rice Line 26; 4× rate,6%
same,No. filled seeds/3 panicles,transgenic rice Line 26; 4× rate,10
same,Total No. of kernels/3 panicles,transgenic rice Line 26; 4× rate,170
same,% seed-set,transgenic rice Line 26; 6× rate,1%
same,No. filled seeds/3 panicles,transgenic rice Line 26; 6× rate,2
same,Total No. of kernels/3 panicles,transgenic rice Line 26; 6× rate,178
same,% seed-set,[6]; 1× rate,0%
same,No. filled seeds/3 panicles,[6]; 1× rate,0
same,Total No. of kernels/3 panicles,[6]; 1× rate,0
same,% seed-set,[6]; 2× rate,0%
same,No. filled seeds/3 panicles,[6]; 2× rate,0
same,Total No. of kernels/3 panicles,[6]; 2× rate,0
same,% seed-set,[6]; 4× rate,0%
same,No. filled seeds/3 panicles,[6]; 4× rate,0
same,Total No. of kernels/3 panicles,[6]; 4× rate,0
same,% seed-set,[6]; 6× rate,0%
same,No. filled seeds/3 panicles,[6]; 6× rate,0
same,Total No. of kernels/3 panicles,[6]; 6× rate,0
same,% seed-set,transgenic rice Line 29; 1× rate,90%
same,No. filled seeds/3 panicles,transgenic rice Line 29; 1× rate,122
same,Total No. of kernels/3 panicles,transgenic rice Line 29; 1× rate,137
same,% seed-set,transgenic rice Line 29; 2× rate,81%
same,No. filled seeds/3 panicles,transgenic rice Line 29; 2× rate,116
same,Total No. of kernels/3 panicles,transgenic rice Line 29; 2× rate,144
same,% seed-set,transgenic rice Line 29; 4× rate,26%
same,No. filled seeds/3 panicles,transgenic rice Line 29; 4× rate,41
same,Total No. of kernels/3 panicles,transgenic rice Line 29; 4× rate,179
same,% seed-set,transgenic rice Line 29; 6× rate,19%
same,No. filled seeds/3 panicles,transgenic rice Line 29; 6× rate,27
same,Total No. of kernels/3 panicles,transgenic rice Line 29; 6× rate,140
same,"Score, individual plants (0 dead plants, 5 healthy plants with no injury)",[7]; [8],4
same,M.S.,[7]; [8],4
same,"Score, individual plants (0 dead plants, 5 healthy plants with no injury)",[7]; [9],4 (2×) and 3 (3×)
same,M.S.,[7]; [9],3.4
same,"Score, individual plants (0 dead plants, 5 healthy plants with no injury)",[7]; [10],4 and 3 (4×)
same,M.S.,[7]; [10],3.2
